This test deals with HCV 1b genotype. Nature of the test: HCV replicon assay (HCV-neo replicon cells, wild-type). The class given is cell-based, Hepatitis C virus. The note with it: HCV 1b genotype replicon. A digest of the protocol: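 HCV-neo replicon cells (wild-type) and replicon cells carrying NS5A resistance substitutions were treated with compounds; assay per O'Boyle et al. 2005, with luciferase-reporter read-out variants also used.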

The mark [1] stands for this setting: Hepatitis C virus, class symbol, read-out: EC50 Range against HCV 1b.
The mark [2] stands for this setting: Hepatitis C virus, class symbols, read-out: EC50 Range against HCV 1b.
The mark [3] stands for this setting: Hepatitis C virus, read-out: EC50 1b.

Molecules are shown by their SMILES. Where two headings read alike, the source gives them in different places. A value given as a limit tells only on which side of the number the result lay.

Regarding `O=C(Nc1ccc(-c2ncc(-c3ccc(NC(=O)[C@@H]4CCCN4C(=O)C4CC4)cc3)o2)cc1)C1CCCN1C(=O)C1CC1` (stereo in doubt) [JG-7, (2S,2′S)-N,N′-(1,3-oxazole-2,5-diyldi-4,1-phenylene)bis(1-(cyclopropylcarbonyl)-2-pyrrolidinecarboxamide)], under setting [1], the concentration for a half-maximal effect (EC50) was 100 to 999 nM. Consider `Cn1cccc1C(=O)N1C[C@H](OC(C)(C)C)C[C@H]1C(=O)Nc1ccc(-c2cnc(-c3ccc(NC(=O)[C@@H]4C[C@@H](OC(C)(C)C)CN4C(=O)c4cccn4C)cc3)o2)cc1` [XY-71, (2S,4R,2′S,4′R)-N,N′-(1,3-oxazole-2,5-diyldi-4,1-phenylene)bis(4-tert-butoxy-1-((1-methyl-1H-pyrrol-2-yl)carbonyl)-2-pyrrolidinecarboxamide)], for which the EC50 under setting [2] was in the range of 1000 to 10000 nM. Turning to `CCOC(=O)c1cc(C(O)C(=O)N2CCC[C@H]2C(=O)Nc2ccc(-c3cnc(-c4ccc(NC(=O)[C@@H]5CCCN5C(=O)C(O)c5c[nH]c(C(=O)OCC)c5)cc4)o3)cc2)c[nH]1` (stereo partly drawn) [Example D-12, diethyl 4,4′-(2,2′-(2S,2′S)-2,2′-(4,4′-(oxazole-2,5-diyl)bis(4,1-phenylene))bis(azanediyl)bis(oxomethylene)bis(pyrrolidine-2,1-diyl)bis(1-hydroxy-2-oxoethane-2,1-diyl))bis(1H-pyrrole-2-carboxylate)], the concentration giving a half-maximal response (EC50) was 1000 to 10000 nM (class symbol, read-out: EC50 Range against HCV 1b) and 2360 nM (read-out: EC50 1b). In the case of `Cc1nc(-c2ccc(NC(=O)[C@@H]3CCCN3C(=O)OCc3ccccc3)cc2)c(-c2ccc(NC(=O)[C@@H]3CCCN3C(=O)OCc3ccccc3)cc2)o1` [OL-5, (2S,2′S)-2,2′-[(2-methyl-4,5-oxazolediyl)bis(4,1-phenyleneiminocarbonyl)]bis-1-pyrrolidinecarboxylic acid, bis(phenylmethyl) ester], the EC50 under setting [1] fell in the range of 100 to 999 nM. In the case of `Cc1cc(CC(=O)N2C[C@H](OC(C)(C)C)C[C@H]2C(=O)Nc2ccc(-c3cnc(-c4ccc(NC(=O)[C@@H]5C[C@@H](OC(C)(C)C)CN5C(=O)Cc5cc(C)no5)cc4)o3)cc2)on1` [XY-70, (2S,4R,2′S,4′R)-N,N′-(1,3-oxazole-2,5-diyldi-4,1-phenylene)bis(4-tert-butoxy-1-((3-methyl-5-isoxazolyl)acetyl)-2-pyrrolidinecarboxamide)], the 50% effective concentration (EC50) under setting [2] lay in the range of 4.57 to 99 nM. As for `C[C@H](NC(=O)c1cccc(F)n1)C(=O)Nc1ccc(-c2nnc(-c3ccc(NC(=O)[C@H](C)NC(=O)c4cccc(F)n4)cc3)o2)cc1` [RK-29, N,N′-(1,3,4-oxadiazole-2,5-diylbis(4,1-phenyleneimino((2S)-1-oxo-1,2-propanediyl)))bis(6-fluoro-2-pyridinecarboxamide)], under setting [1], the concentration for a half-maximal effect (EC50) is 1000 to 10000 nM.

Consider `Cc1cc(C(=O)N2CCC[C@H]2C(=O)Nc2ccc(-c3cnc(-c4ccc(NC(=O)[C@@H]5CCCN5C(=O)c5cc(C)oc5C)cc4)o3)cc2)c(C)o1` [XY-34, (2S,2′S)-N,N′-(1,3-oxazole-2,5-diyldi-4,1-phenylene)bis(1-(2,5-dimethyl-3-furoyl)-2-pyrrolidinecarboxamide)], for which the EC50 under setting [2] lay within 100 to 999 nM. For the compound `C[C@H](NC(=O)c1nc(Cl)cc2ccccc12)C(=O)Nc1ccc(-c2nnc(-c3ccc(NC(=O)[C@H](C)NC(=O)c4nc(Cl)cc5ccccc45)cc3)o2)cc1` [RK-36, N,N′-(1,3,4-oxadiazole-2,5-diylbis(4,1-phenyleneimino((2S)-1-oxo-1,2-propanediyl)))bis(3-chloro-1-isoquinolinecarboxamide)], the concentration giving a half-maximal response (EC50) reads like this: under setting [2], 1000 to 10000 nM; under setting [3], 1000 nM. Take `O=C(Nc1ccc(-c2n[nH]nc2-c2ccc(NC(=O)[C@@H]3CCCN3C(=O)Cc3ccccc3)cc2)cc1)[C@@H]1CCCN1C(=O)Cc1ccccc1` [OL-20, (2S,2′S)-N,N′-(1H-1,2,3-triazole-4,5-diyldi-4,1-phenylene)bis[1-(phenylacetyl)-2-pyrrolidinecarboxamide]]: the concentration giving a half-maximal response (EC50) under setting [1] was in the range of 4.57 to 99 nM. Take `O=C(Nc1ccc(-c2nnc(-c3ccc(NC(=O)[C@@H]4CCCN4C(=O)c4cc(Cl)ccn4)cc3)o2)cc1)[C@@H]1CCCN1C(=O)c1cc(Cl)ccn1` [RK-27, (2S,2′S)-N,N′-(1,3,4-oxadiazole-2,5-diyldi-4,1-phenylene)bis(1-((4-chloro-2-pyridinyl)carbonyl)-2-pyrrolidinecarboxamide)]: the concentration giving a half-maximal response (EC50) under setting [1] lay within 100 to 999 nM. With `O=C(Nc1ccc(-c2cc(-c3ccc(NC(=O)[C@@H]4C=CCN4C(=O)C4CC4)cc3)[nH]n2)cc1)[C@@H]1C=CCN1C(=O)C1CC1` [OL-37, (2S,2′S)-N,N′-(1H-pyrazole-3,5-diyldi-4,1-phenylene)bis(1-(cyclopropylcarbonyl)-2,5-dihydro-1H-pyrrole-2-carboxamide)], the half-maximal effective concentration (EC50) under setting [1] lay within 1000 to 10000 nM.

Regarding `O=C(Nc1ccc(-c2cnc(-c3ccc(NC(=O)[C@@H]4CCCN4C(=O)[C@@H](O)c4ccccc4)cc3)o2)cc1)[C@@H]1CCCN1C(=O)[C@@H](O)c1ccccc1` [JG-20, (2S,2′S)-N,N′-(1,3-oxazole-2,5-diyldi-4,1-phenylene)bis(1-((2S)-2-hydroxy-2-phenylacetyl)-2-pyrrolidinecarboxamide)], under setting [1], the EC50 was 4.57 to 99 nM. For the compound `CC(=O)N[C@@H](C(=O)N1[C@H](C(=O)Nc2ccc(-c3cnc(-c4ccc(NC(=O)[C@@H]5C[C@@H]6C[C@@H]6N5C(=O)[C@H](NC(C)=O)c5ccccc5)cc4)o3)cc2)C[C@@H]2C[C@@H]21)c1ccccc1`, the half-maximal effective concentration (EC50) is 4.57 to 99 nM under setting [1] and below 5 nM under setting [3].

The term EC50 denotes the concentration that produces a half-maximal response.
